In US20260250318A1, “COMPOSITIONS AND METHODS FOR CROSSING THE BLOOD BRAIN BARRIER” (VOYAGER THERAPEUTICS, INC., priority 2022, published 2026):

System: brains, heart, liver, muscle, and DRG of the NHPs
Assay: Maturation of TTM-001 and TTM-002 capsids, NGS enrichment in NHP tissues
Type: in vivo
Source text: This Example describes maturation of the AAV9 capsid variants, TTM-001 (SEQ ID NO: 981 (amino acid) and 983 (DNA), comprising SEQ ID NO: 941 (encoded by SEQ ID NO: 942)) and TTM-002 (SEQ ID NO: 982 (amino acid) and 984 (DNA), comprising SEQ ID NO: […] (encoded by SEQ ID NO: 944)) in NHPs to further enhance their transduction and biodistribution in the central nervous system as well as other tissues, and evolve the AAV capsid variants to provide further cross-species compatibility. Two approaches were used to mature the TTM-001 and TTM-002 capsid sequences in order to randomize and mutate within and around the peptide insert comprised within loop IV of the capsid variant. […] In the first maturation approach, sets of three contiguous amino acids were randomized across the mutagenesis region in the TTM-001 and TTM-002 sequences, which spanned from position 450 to position 466, numbered according to SEQ ID NO: 981 and 982. In the second maturation approach, mutagenic primers were used to introduce point mutations at a low frequency, scattered across the mutagenesis region in the TTM-001 and TTM-002 sequences ranging from position 449 to position 466, numbered according to SEQ ID NO: 981 and 982. AAV capsid variants arising from each maturation approach for TTM-001 and TTM-002 were pooled together, for subsequent testing and characterization in NHPs.
The library of pooled matured AAV capsid variants generated using the first maturation approach and the second maturation approach for the TTM-001 and TTM-002 AAV capsid variants were injected into two NHPs. […] Following RNA recovery and RT-PCR amplification, a systematic NGS enrichment analysis was performed to calculate the fold enrichment ratio relative to an AAV9 control, and the peptides comprised within the variants were identified.
Following the RNA recovery and NGS analysis from the second maturation approach, approximately 680,000 capsid variants were identified. The 680,000 matured capsid variants were then filtered based on samples with a raw virus count greater than 10 and a coefficient of variance (CV) of less than 1, which was calculated for each peptide across the brain samples taken from the two NHPs. […] Using this filtering criteria, this led to approximately 64,000 matured capsid variants.

[1] = NHP DRG, NGS, relative to AAV9 control
[2] = NHP brain, NGS, relative to AAV9 control
[3] = NHP heart, NGS, relative to AAV9 control
[4] = NHP liver DNA, NGS, relative to AAV9 control
[5] = NHP liver RNA, NGS, TTM-001 and TTM-002 matured AAV capsid variants, relative to AAV9 control
[6] = NHP muscle, NGS, relative to AAV9 control

Row | Sequence | Fold Enrichment relative to AAV9, DRG (NHP) [1] [fold] | Fold Enrichment relative to AAV9, Brain (NHP) [2] [fold] | Fold Enrichment relative to AAV9, Heart (NHP) [3] [fold] | Fold Enrichment relative to AAV9, Liver DNA (NHP) [4] [fold] | Fold Enrichment relative to AAV9, Liver RNA (NHP) [5] [fold] | Fold Enrichment relative to AAV9, Muscle (NHP) [6] [fold] | Fold Enrichment relative to AAV9, DRG (NHP) (NGS fold-enrichment, DRG, NHP, relative to AAV9) [fold] | Fold Enrichment relative to AAV9, Brain (NHP) (NGS fold-enrichment, brain, NHP, relative to AAV9) [fold] | Fold Enrichment relative to AAV9, Heart (NHP) (NGS fold-enrichment, heart, NHP, relative to AAV9) [fold] | Fold Enrichment relative to AAV9, Liver DNA (NHP) (NGS fold-enrichment, liver DNA, NHP, relative to AAV9) [fold] | Fold Enrichment relative to AAV9, Liver RNA (NHP) (NGS fold-enrichment, liver RNA, NHP, relative to AAV9) [fold] | Fold Enrichment relative to AAV9, Muscle (NHP) (NGS fold-enrichment, muscle, NHP, relative to AAV9) [fold]
1 | KTINHRISPHSKAQNQQT | 0.000 | 0.000 | 0.000 | 1.876 | 42.998 | 0.000 |  |  |  |  |  | 
2 | KTINGSGSPHSWLKNQQT | 0.000 | 0.000 | 0.000 | 0.603 | 13.995 | 0.000 |  |  |  |  |  | 
3 | KKHLGSGSPHSKAQNQQT | 0.000 | 0.000 | 0.000 | 0.658 | 18.521 | 0.000 |  |  |  |  |  | 
4 | KTINGSGSPHSKAQSRKT | 0.000 | 0.000 | 0.000 | 2.715 | 14.589 | 0.000 |  |  |  |  |  | 
5 | KTINGSGSPHIVWQNQQT | 0.000 | 0.000 | 0.000 | 6.056 | 58.021 | 0.000 |  |  |  |  |  | 
6 | KTINGSGSPHSKSEQQQT | 0.000 | 0.000 | 0.000 | 1.769 | 11.785 | 0.000 |  |  |  |  |  | 
7 | KTINGSGSPHSVKKNQQT | 0.000 | 0.000 | 0.000 | 3.908 | 48.475 | 0.000 |  |  |  |  |  | 
8 | KTINGSGSPHSGKRNQQT | 0.000 | 0.000 | 0.000 | 5.396 | 35.120 | 0.000 |  |  |  |  |  | 
9 | KTINGSGSPHSFFGNQQT | 0.000 | 0.000 | 0.000 | 6.101 | 38.088 | 0.000 |  |  |  |  |  | 
10 | KTIVGSGSPHSKPQNQQT |  |  |  |  |  |  | 0.000 | 0.000 | 0.000 | 0.894 | 10.381 | 0.000
11 | KTINGSGSPHSKARMYQT | 0.000 | 0.000 | 0.000 | 0.313 | 23.424 | 0.000 |  |  |  |  |  | 
12 | KTINGSGSPHWSYQNQQT | 0.000 | 0.000 | 0.000 | 3.751 | 28.607 | 0.000 |  |  |  |  |  | 
13 | KTINGSGSPHSFWSNQQT | 0.000 | 0.000 | 0.000 | 1.345 | 22.857 | 0.000 |  |  |  |  |  | 
14 | KTINGRRSPHGKAQNQQT | 0.000 | 0.000 | 0.000 | 3.259 | 37.728 | 0.000 |  |  |  |  |  | 
15 | KTINGSGSPHSKRYTQQT | 0.000 | 0.000 | 0.000 | 9.412 | 25.267 | 0.000 |  |  |  |  |  | 
16 | KTINGSGSPHSKAQARKT | 0.000 | 0.000 | 0.000 | 3.644 | 96.557 | 0.000 |  |  |  |  |  | 
17 | KTINGPWSPHRKAQNQQT | 0.000 | 0.000 | 0.000 | 0.434 | 12.103 | 0.000 |  |  |  |  |  | 
18 | KTINGSGSPHSVRCNQQT | 0.000 | 0.000 | 0.000 | 3.912 | 15.860 | 0.000 |  |  |  |  |  | 
19 | KTINYTRSPHSKAQNQQT | 0.000 | 0.000 | 0.000 | 0.431 | 11.514 | 0.000 |  |  |  |  |  | 
20 | KTINGSGSPHSCHQNQQT | 0.000 | 0.000 | 0.000 | 8.562 | 56.242 | 0.000 |  |  |  |  |  | 
